Experimental data: patent US9725445B2, “Cycloalkyl nitrile pyrazolo pyridones as Janus kinase inhibitors” (Merck Sharp & Dohme Corp., priority 2013, dated 2017)

Tests used:
[1] = biological target: JAK1 (Homo sapiens (Human), UniProt P23458); experiment: Jak biochemical HTRF assay, JAK1; conditions: HTRF biochemical assay, recombinant GST-tagged catalytic domain; read-out: JAK1 IC50
[2] = biological target: JAK2 (Homo sapiens (Human), UniProt O60674); experiment: Jak biochemical HTRF assay, JAK2; conditions: HTRF biochemical assay, recombinant GST-tagged catalytic domain; read-out: JAK2 IC50
Sequence of JAK2 (O60674 849-1124): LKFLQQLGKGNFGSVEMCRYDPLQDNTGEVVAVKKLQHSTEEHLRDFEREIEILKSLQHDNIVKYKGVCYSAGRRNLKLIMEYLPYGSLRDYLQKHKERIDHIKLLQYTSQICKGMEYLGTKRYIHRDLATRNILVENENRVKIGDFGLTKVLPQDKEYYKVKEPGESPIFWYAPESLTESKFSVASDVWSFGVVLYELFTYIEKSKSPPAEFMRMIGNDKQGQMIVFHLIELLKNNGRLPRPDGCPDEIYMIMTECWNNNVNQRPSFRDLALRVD

Sequence of JAK1 (P23458 875-1153): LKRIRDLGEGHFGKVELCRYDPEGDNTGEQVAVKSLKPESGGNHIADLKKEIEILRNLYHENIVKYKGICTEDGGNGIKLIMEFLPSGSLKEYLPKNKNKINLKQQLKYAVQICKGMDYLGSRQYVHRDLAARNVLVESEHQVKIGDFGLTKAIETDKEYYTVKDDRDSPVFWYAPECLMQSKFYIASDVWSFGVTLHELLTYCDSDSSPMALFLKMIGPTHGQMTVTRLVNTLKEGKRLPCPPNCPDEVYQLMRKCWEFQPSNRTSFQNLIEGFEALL

| Compound | IC50 [1] | IC50 [2] |
| --- | --- | --- |
| N#C[C@H]1CCCC[C@@H]1n1nc(Nc2ccc(S(=O)(=O)NC3CCCCC3)cc2)c2c(=O)[nH]ccc21 [Example 3-22, 4-({1-[(1S,2S)-2-cyanocyclohexyl]-4-oxo-4,5-dihydro-1H-pyrazolo[4,3-c]pyridin-3-yl}amino)-N-cyclohexylbenzenesulfonamide] | 0.4 nM | 1.2 nM |
| CC(C)(C)N1Cc2cc(Nc3nn([C@H]4CCC[C@@H]4C#N)c4cc[nH]c(=O)c34)ccc2S1(=O)=O [Example 3-100, (1S,2S)-2-{3-[(2-tert-butyl-1,1-dioxido-2,3-dihydro-1,2-benzisothiazol-5-yl)amino]-4-oxo-4,5-dihydro-1H-pyrazolo[4,3-c]pyridin-1-yl}cyclopentanecarbonitrile] | 0.043 nM | 0.28 nM |
| COCCNS(=O)(=O)c1ccc(Nc2nn([C@H]3CCCC[C@@H]3C#N)c3cc[nH]c(=O)c23)cc1 [Example 3-21, 4-({1-[(1S,2S)-2-cyanocyclohexyl]-4-oxo-4,5-dihydro-1H-pyrazolo[4,3-c]pyridin-3-yl}amino)-N-(2-methoxyethyl)benzenesulfon-amide] | 0.17 nM | 0.79 nM |
| N#C[C@H]1CCCC[C@@H]1n1nc(Nc2ccc3c(c2)CCS3(=O)=O)c2c(=O)[nH]ccc21 [Example 3-59, (1S,2S)-2-{3-[(1,1-dioxido-2,3-dihydro-1-benzothiophen-5-yl)amino]-4-oxo-4,5-dihydro-1H-pyrazolo[4,3-c]pyridin-1-yl}cyclohexanecarbonitrile] | 0.062 nM | 0.71 nM |
| CCNC(c1ccc(Nc2nn([C@H]3CCC[C@@H]3C#N)c3cc[nH]c(=O)c23)cc1)C(F)(F)F (single isomer, unassigned) [Example 3-113, (1S,2S)-2-[3-({4-[(1R or 1S)-1-(ethylamino)-2,2,2-trifluoroethyl]phenyl}amino)-4-oxo-4,5-dihydro-1H-pyrazolo[4,3-c]pyridin-1-yl]cyclopentanecarbonitrile] | 0.15 nM | 0.31 nM |
| N#C[C@H]1CCCC[C@@H]1n1nc(Nc2ccc(S(=O)(=O)NCc3ccccc3)cc2)c2c(=O)[nH]ccc21 [Example 3-19, N-benzyl-4-({1-[(1S,2S)-2-cyanocyclohexyl]-4-oxo-4,5-dihydro-1H-pyrazolo[4,3-c]pyridin-3-yl}amino)benzenesulfonamide] | 0.21 nM | 1.2 nM |
| C[C@H](NC1CCC(n2nc(Nc3ccc(Cl)cc3)c3c(=O)[nH]ccc32)C(C#N)C1)C1CC1 (stereo in doubt) [Example 4-4, (1S,2S,5S)-2-(3-((4-Chlorophenyl)amino)-4-oxo-4,5-dihydro-1H-pyrazolo[4,3-c]pyridin-1-yl)-5-(((S)-1-cyclopropylethyl)amino)cyclohexanecarbonitrile] | 7.8 nM | 525 nM |
| COCC(C)(O)c1cc(Nc2nn([C@H]3CCCC[C@@H]3C#N)c3cc[nH]c(=O)c23)ccc1S(C)(=O)=O (stereo partly drawn) [Example 3-85, (1S,2S)-2-(3-{[3-(1-hydroxy-2-methoxy-1-methylethyl)-4-(methylsulfonyl)phenyl]amino}-4-oxo-4,5-dihydro-1H-pyrazolo[4,3-c]pyridin-1-yl)cyclohexanecarbonitrile] | 3 nM | 4.2 nM |
| N#C[C@H]1CCCC[C@@H]1n1nc(Nc2ccc(CNC(=O)c3cnco3)cc2)c2c(=O)[nH]ccc21 [Example 3-29, N-[4-({1-[(1S,2S)-2-cyanocyclohexyl]-4-oxo-4,5-dihydro-1H-pyrazolo[4,3-c]pyridin-3-yl}amino)benzyl]-1,3-oxazole-5-carboxamide] | 0.32 nM | 1.5 nM |
| CN(C)Cc1cccc(Nc2nn([C@H]3CCCC[C@@H]3C#N)c3cc[nH]c(=O)c23)c1 [Example 3-34, (1S,2S)-2-[3-({3-[(dimethylamino)methyl]phenyl}amino)-4-oxo-4,5-dihydro-1H-pyrazolo[4,3-c]pyridin-1-yl]cyclohexanecarbonitrile] | 1.1 nM | 1.1 nM |
| N#C[C@H]1CCCC[C@@H]1n1nc(Nc2cccc(Cn3cncn3)c2)c2c(=O)[nH]ccc21 [Example 3-50, (1S,2S)-2-(4-oxo-3-{[3-(1H-1,2,4-triazol-1-ylmethyl)phenyl]amino}-4,5-dihydro-1H-pyrazolo[4,3-c]pyridin-1-yl)cyclohexanecarbonitrile] | 0.5 nM | 1.3 nM |
| CC(C)NS(=O)(=O)c1ccc(Nc2nn([C@H]3CCCC[C@@H]3C#N)c3cc[nH]c(=O)c23)cc1 [Example 3-18, 4-({1-[(1S,2S)-2-cyanocyclohexyl]-4-oxo-4,5-dihydro-1H-pyrazolo[4,3-c]pyridin-3-yl}amino)-N-(1-methylethyl)benzenesulfonamide] | 0.12 nM | 0.37 nM |
| N#C[C@H]1CCCC[C@@H]1n1nc(Nc2ccc3c(c2)CN(CCO)S3(=O)=O)c2c(=O)[nH]ccc21 [Example 3-80, (1S,2S)-2-(3-{[2-(2-hydroxyethyl)-1,1-dioxido-2,3-dihydro-1,2-benzisothiazol-5-yl]amino}-4-oxo-4,5-dihydro-1H-pyrazolo[4,3-c]pyridin-1-yl)cyclohexanecarbonitrile] | 0.079 nM | 0.92 nM |
| N#Cc1ccc(Nc2nn([C@H]3CCC[C@@H]3C#N)c3cc[nH]c(=O)c23)cc1 [Example 3-112, 4-({1-[(1S,2S)-2-cyanocyclopentyl]-4-oxo-4,5-dihydro-1H-pyrazolo[4,3-c]pyridin-3-yl}amino)benzonitrile] | 0.25 nM | 1.2 nM |
| CS(=O)(=O)c1ccc(Nc2nn([C@H]3CCCC[C@@H]3C#N)c3cc[nH]c(=O)c23)cc1 [Example 3-5, (1S,2S)-2-(3-{[4-(methylsulfonyl)phenyl]amino}-4-oxo-4,5-dihydro-1H-pyrazolo[4,3-c]pyridin-1-yl)cyclohexanecarbonitrile] | 0.12 nM | 0.83 nM |

Now from value to molecule:

| IC50 [1] | IC50 [2] | Compound |
| --- | --- | --- |
| 0.43 nM | 0.41 nM | Cc1cc(Nc2nn([C@@H]3CCCCC[C@H]3C#N)c3cc[nH]c(=O)c23)ccc1C(=O)N1CCCC1 (single isomer, unassigned) [Example 15-45, (1R,2R or 1S,2S)-2-(3-{[3-methyl-4-(pyrrolidin-1-ylcarbonyl)phenyl]amino}-4-oxo-4,5-dihydro-1H-pyrazolo[4,3-c]pyridin-1-yl)cycloheptanecarbonitrile] |
| 19 nM | 18 nM | CN(C(C)(C)C)S(=O)(=O)c1ccc(Nc2nn([C@H]3CCCCC[C@@H]3C#N)c3cc[nH]c(=O)c23)cc1 (single isomer, unassigned) [Example 15-48, N-tert-butyl-4-({1-[(1S,2S or 1R,2R)-2-cyanocycloheptyl]-4-oxo-4,5-dihydro-1H-pyrazolo[4,3-c]pyridin-3-yl}amino)-N-methylbenzenesulfonamide] |
| 3.7 nM | 233 nM | C[C@H](N[C@@H]1CC[C@H](n2nc(Nc3ccc(OC(F)(F)F)cc3)c3c(=O)[nH]ccc32)[C@@H](C#N)C1)C1CC1 [Example 5-27, (1S,2S,5R)-5-(((S)-1-cyclopropylethyl)amino)-2-(4-oxo-3-((4-(trifluoromethoxy)phenyl)amino)-4,5-dihydro-1H-pyrazolo[4,3-c]pyridin-1-yl)cyclohexanecarbonitrile] |
| 0.23 nM | 0.92 nM | CC(=O)N1Cc2ccc(Nc3nn([C@H]4CCCC[C@@H]4C#N)c4cc[nH]c(=O)c34)cc2C1 [Example 15-26, (1S,2S)-2-{3-[(2-acetyl-2,3-dihydro-1H-isoindol-5-yl)amino]-4-oxo-4,5-dihydro-1H-pyrazolo[4,3-c]pyridin-1-yl}cyclohexanecarbonitrile] |
| 1.4 nM | 2.3 nM | N#C[C@H]1CCCC[C@@H]1n1nc(Nc2cc(F)cc(CN)c2)c2c(=O)[nH]ccc21 [Example 6-3, (1S,2S)-2-(3-((3-(aminomethyl)-5-fluorophenyl)amino)-4-oxo-4,5-dihydro-1H-pyrazolo[4,3-c]pyridin-1-yl)cyclohexanecarbonitrile] |
| 1 nM | 8.1 nM | N#C[C@H]1CCCC[C@@H]1n1nc(Nc2ccc(C3(C(F)(F)F)CC3)cc2)c2c(=O)[nH]ccc21 [Example 15-19] |
| 0.62 nM | 1.2 nM | CC(C)C(c1ccc(Nc2nn([C@H]3CCCC[C@@H]3C#N)c3cc[nH]c(=O)c23)cc1)n1cc(C(=O)OC(C)(C)C)nn1 (single isomer, unassigned) [Example 15-57, tert-butyl 1-{(1S or 1R)-1-[4-({1-[(1S,2S)-2-cyanocyclohexyl]-4-oxo-4,5-dihydro-1H-pyrazolo[4,3-c]pyridin-3-yl}amino)phenyl]-2-methylpropyl}-1H-1,2,3-triazole-4-carboxylate] |
| 1.5 nM | 19 nM | CN(C)[C@@H]1CC[C@H](n2nc(Nc3ccc(Cl)c(F)c3)c3c(=O)[nH]ccc32)[C@@H](C#N)C1 [Example 5-1, (1S,2S,5R)-2-(3-((4-Chloro-3-fluorophenyl)amino)-4-oxo-4,5-dihydro-1H-pyrazolo[4,3-c]pyridin-1-yl)-5-(dimethylamino)cyclohexanecarbonitrile] |
| 0.14 nM | 0.27 nM | N#C[C@H]1CCCC[C@@H]1n1nc(Nc2ccc(-c3cnco3)cc2)c2c(=O)[nH]ccc21 [Example 15-8, (1S,2S)-2-(3-{[4-(1,3-oxazol-5-yl)phenyl]amino}-4-oxo-4,5-dihydro-1H-pyrazolo[4,3-c]pyridin-1-yl)cyclohexanecarbonitrile] |
| 0.069 nM | 0.17 nM | CC1(N2Cc3cc(Nc4nn([C@H]5CCCC[C@@H]5C#N)c5cc[nH]c(=O)c45)ccc3S2(=O)=O)CCOCC1 [Example 15-64, (1S,2S)-2-(3-{[2-(4-methyltetrahydro-2H-pyran-4-yl)-1,1-dioxido-2,3-dihydro-1,2-benzisothiazol-5-yl]amino}-4-oxo-4,5-dihydro-1H-pyrazolo[4,3-c]pyridin-1-yl)cyclohexanecarbonitrile] |
| 0.75 nM | 2.3 nM | N#C[C@H]1CCCC[C@@H]1n1nc(Nc2ccc(F)c(CN)c2)c2c(=O)[nH]ccc21 [Example 6-2, (1S,2S)-2-(3-((3-(aminomethyl)-4-fluorophenyl)amino)-4-oxo-4,5-dihydro-1H-pyrazolo[4,3-c]pyridin-1-yl)cyclohexanecarbonitrile] |
